The target of one series is T1, hERG product (Homo sapiens, UniProt Q12809).
T1 construct: host or cells: HEK-293S cells (membranes)
In words: Radioligand binding assay for [3H]-dofetilide binding to the hERG product expressed in HEK-293S cells. The conditions noted are these: displacement of 3H-UK068798 (~5 nM) from membranes of hERG expressing HEK-293S cells; Cheng-Prusoff. The protocol:
(§1) A Radioligand Binding Assay for [^3H]-dofetilide Binding to the hERG Product Expressed in HEK-293S Cells
(§2) hERG expressing HEK-293S cells were obtained from University of Wisconsin and membranes prepared according to standard protocols. Membranes were diluted in assay buffer, consisting of Tris-HCl 50 mM; KCl 10 mM; MgCl2 1 mM pH 7.4 with NaOH, and were pre-coupled with 120 mg/ml YSi polylysine Scintillation Proximity Beads in a ratio of 16 ug protein to 1 mg bead for 2 hours at 4° C. The coupled beads were separated from uncoupled protein by centrifugation and re-suspended in cold assay buffer to give a working solution of 6.25 mgs/ml. 20 μl of test compound was added to a 96-well microtiteplate at a final assay top concentration of 10 μM in serial ½ log dilutions (1 in 3.162) to generate at 10 point IC50 curve. 20 μl of ^3H-UK068798 (Dofetilide, Amersham; specific activity 78-83 Ci/mmole) was placed in each well of a 96 well plate to a final assay concentration of ˜5 nM. To this, 160 μl of bead/membrane mixture was added. The assay plates were shaken for 1 hour at room temperature and incubated for a further 30 minutes at room temperature for beads to settle. The plates were then read on a Packard TopCount NXT. The percentage displacement of ^3H-UK068798 was calculated using 0% as defined by 1% DMSO vehicle in well and 100% as defined by 10 μM UK-068798. Dose response curves were fitted using a four parameter logistical fit and the Ki value was derived using the Cheng-Prusoff equation (Cheng, Y. C. & Prusoff, W. H. (1973). Biochem. Pharmacol., 22, 3099-3108. )
A general note: hERG is a cardiac potassium channel; its block is linked to QT prolongation.

The target in series [1] is T2, human histamine H3 receptor (Homo sapiens, UniProt Q9Y5N1).
T2 construct: expressed in transfected cells; host or cells: HEK-293 cells expressing a CRE β-lactamase reporter gene
T2 sequence (Q9Y5N1 whole entry): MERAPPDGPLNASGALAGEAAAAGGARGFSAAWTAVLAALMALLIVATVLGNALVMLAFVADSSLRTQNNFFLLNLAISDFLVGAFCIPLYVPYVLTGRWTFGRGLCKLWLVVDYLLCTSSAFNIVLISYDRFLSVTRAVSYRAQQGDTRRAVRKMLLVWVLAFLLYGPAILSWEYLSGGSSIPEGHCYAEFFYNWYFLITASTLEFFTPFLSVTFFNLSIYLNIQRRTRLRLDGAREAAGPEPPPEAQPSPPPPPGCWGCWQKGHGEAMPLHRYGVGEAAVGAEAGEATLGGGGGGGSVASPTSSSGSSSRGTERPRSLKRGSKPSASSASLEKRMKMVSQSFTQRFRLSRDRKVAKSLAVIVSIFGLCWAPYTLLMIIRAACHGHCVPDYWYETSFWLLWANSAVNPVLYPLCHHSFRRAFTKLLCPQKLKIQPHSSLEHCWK
In words: H3 cell based functional assay (cAMP through β-lactamase reporter gene activity). The conditions noted are these: functional Ki from antagonist IC50 by Cheng-Prussoff; HEK-293 cells, 10 μM forskolin, 1 nM imetit. The protocol: H3 Cell Based Functional Assay Compounds were evaluated using a cell based functional assay measuring cAMP through β-lactamase reporter gene activity. A stable cell line was generated from HEK-293 cells expressing a CRE β-lactamase reporter gene and transfected with human histamine H3 receptor cDNA. Cells were seeded at a density of 500,000 cells/ml, and grown overnight in MEM (Invitrogen) supplemented with 1% dialysed FBS (Sigma), 2 mM glutamine (Sigma), 1 mM sodium pyruvate (Sigma), 0.1 mM non essential amino acids (Invitrogen) and 25 mM HEPES (Sigma) in poly D lysine coated 384 well plates (BD Biosciences).

In the next series the target is T3, hERG (Homo sapiens, UniProt Q12809).
T3 construct: host or cells: HEK-293S cells (membranes)
T3 sequence (Q12809 whole entry): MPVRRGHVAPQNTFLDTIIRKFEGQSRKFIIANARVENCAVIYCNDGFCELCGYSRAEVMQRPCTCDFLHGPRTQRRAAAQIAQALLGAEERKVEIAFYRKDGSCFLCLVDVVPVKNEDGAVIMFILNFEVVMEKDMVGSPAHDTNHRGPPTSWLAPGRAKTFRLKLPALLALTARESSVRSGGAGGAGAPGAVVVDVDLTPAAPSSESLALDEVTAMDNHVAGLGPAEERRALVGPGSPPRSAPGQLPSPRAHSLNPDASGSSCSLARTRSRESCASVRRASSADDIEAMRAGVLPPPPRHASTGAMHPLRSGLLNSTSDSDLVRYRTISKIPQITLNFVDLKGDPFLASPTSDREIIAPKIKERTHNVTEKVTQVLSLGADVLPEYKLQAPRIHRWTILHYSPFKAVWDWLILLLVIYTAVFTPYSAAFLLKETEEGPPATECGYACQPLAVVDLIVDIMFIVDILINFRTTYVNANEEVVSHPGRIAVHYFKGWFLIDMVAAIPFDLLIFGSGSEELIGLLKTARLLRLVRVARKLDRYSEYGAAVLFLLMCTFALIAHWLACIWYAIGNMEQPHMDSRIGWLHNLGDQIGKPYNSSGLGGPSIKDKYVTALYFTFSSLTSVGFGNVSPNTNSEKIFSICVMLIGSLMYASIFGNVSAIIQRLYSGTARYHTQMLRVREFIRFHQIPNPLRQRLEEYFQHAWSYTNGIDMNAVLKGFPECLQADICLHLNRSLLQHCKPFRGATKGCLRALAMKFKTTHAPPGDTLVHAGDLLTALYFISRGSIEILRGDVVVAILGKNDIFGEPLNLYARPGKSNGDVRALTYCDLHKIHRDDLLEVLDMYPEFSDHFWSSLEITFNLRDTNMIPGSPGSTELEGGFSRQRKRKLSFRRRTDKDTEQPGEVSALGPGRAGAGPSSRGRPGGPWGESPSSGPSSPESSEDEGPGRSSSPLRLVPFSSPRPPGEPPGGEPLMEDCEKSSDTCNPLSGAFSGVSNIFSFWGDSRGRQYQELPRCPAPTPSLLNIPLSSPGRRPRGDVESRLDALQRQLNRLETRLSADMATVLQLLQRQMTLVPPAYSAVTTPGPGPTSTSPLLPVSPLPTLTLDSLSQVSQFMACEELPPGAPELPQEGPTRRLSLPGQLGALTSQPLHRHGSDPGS
In words: Radioligand binding assay for [3H]-dofetilide binding to the hERG product expressed in HEK-293S cells. The conditions noted are these: human, membranes of HEK-293S cells expressing hERG, pH 7.4, probe [3H]-dofetilide (3H-UK068798); displacement of 3H-UK068798 (~5 nM) from membranes of hERG expressing HEK-293S cells; Cheng-Prusoff. Here is the method:
as §1, §2

SMILES strings stand for the structures.

T1 sequence (Q12809 whole entry): as above

Usually Ki stands for the equilibrium dissociation constant of an inhibitor or competing ligand from its target. Take `CC(C)N1CCC(Oc2ccc3c(n2)CCN(c2cnccn2)C3)CC1` [Example 71, 2-[(1-Isopropylpiperidin-4-yl)oxy]-6-pyrazin-2-yl-5,6,7,8-tetrahydro-1,6-naphthyridine]: the Ki was 22.9 µM at hERG product and 0.0137 µM in series [1].

Regarding `CNC(=O)c1ccc(N2CCc3nc(OCCCN4CCCC4)ccc3C2)cn1` [Example 65, N-Methyl-5-[2-(3-pyrrolidin-1-ylpropoxy)-7,8-dihydro-1,6-naphthyridin-6(5H)-yl]pyridine-2-carboxamide], the Ki at hERG product amounted to 46.1 µM; in series [1], 0.0163 µM.

Consider `CNC(=O)c1ccc(N2CCc3nc(OCCCN4CCC[C@H]4C)ccc3C2)cn1` [Example 64, N-Methyl-5-[2-{3-[(2R)-2-methylpyrrolidin-1-yl]propoxy}-7,8-dihydro-1,6-naphthyridin-6(5H)-yl]pyridine-2-carboxamide], for which the Ki on hERG product is 55.5 µM; in series [1], 0.00467 µM.

`C[C@H]1CCCN1CCCOc1ccc2c(n1)CCN(c1cccnn1)C2` [Example 25, 2-{3-[(2S)-2-methylpyrrolidin-1-yl]propoxy}-6-pyridazin-3-yl-5,6,7,8-tetrahydro-1,6-naphthyridine]: the Ki is 55.9 µM on hERG product and 0.00556 µM in series [1].

For `NC(=O)c1ccc(N2CCc3nc(OCCCN4CCCCC4)ccc3C2)nc1` [Example 48, 6-[2-(3-piperidin-1-ylpropoxy)-7,8-dihydro-1,6-naphthyridin-6(5H)-yl]nicotinamide], at hERG, the Ki at 1.5 h stood at 100 µM. In addition, in series [1], the Ki amounted to 0.0145 µM.

Turning to `CNC(=O)c1ccc(N2CCc3nc(OCCCN4CCC[C@H]4C)ccc3C2)nc1` [Example 68, N-Methyl-6-[2-{3-[(2R)-2-methylpyrrolidin-1-yl]propoxy}-7,8-dihydro-1,6-naphthyridin-6(5H)-yl]nicotinamide], the Ki at 1.5 h at hERG amounted to 100 µM. In series [1], this molecule gave a Ki of 0.00828 µM.

With `c1cnnc(N2CCc3nc(OCCCN4CCCCC4)ccc3C2)c1` [Example 29, 2-(3-piperidin-1-ylpropoxy)-6-pyridazin-3-yl-5,6,7,8-tetrahydro-1,6-naphthyridine], the Ki on hERG product worked out at 64.4 µM; in series [1] it was 0.0198 µM.

Take `Cc1ccc(N2CCc3nc(OC4CCN(C(C)C)CC4)ccc3C2)cn1` [Example 72, 2-[(1-isoproplpiperidin-4-yl)oxy]-6-(6-methylpyridin-3-yl)-5,6,7,8-tetrahydro-1,6-naphthyridine]: the Ki at hERG product worked out at 13.7 µM; in series [1], 0.00486 µM.

Turning to `CN(C)C(=O)c1ccc(N2CCc3nc(OCCCN4CCCC4)ccc3C2)cn1` [Example 67, N,N-Dimethyl-5-[2-(3-pyrrolidin-1-ylpropoxy)-7,8-dihydro-1,6-naphthyridin-6(5H)-yl]pyridine-2-carboxamide], the Ki at 1.5 h at hERG stood at 100 µM. The molecule also returned a Ki in series [1] of 0.0197 µM.

With `CNC(=O)c1ccc(N2CCc3nc(OC4CCN(C(C)C)CC4)ccc3C2)nc1` [Example 70, 6-[2-[(1-Isopropylpiperidin4-yl)oxy]-7,8-dihydro-1,6-naphthyridin-6(5H)-yl]-N-methylnicotinamide], the Ki came out at 94.4 µM on hERG product and 0.00632 µM in series [1].

For the molecule `CNC(=O)c1ccc(N2CCc3nc(OCCCN4CCCC4)ccc3C2)nc1` [Example 44, N-methyl-6-[2-(3-pyrrolidin-1-ylpropoxy)-7,8-dihydro-1,6-naphthyridin-6(5H)-yl]nicotinamide], the inhibitory constant (Ki) at hERG product came to 85.8 µM; in series [1] it was 0.0181 µM.

`C[C@@H]1CCCN1CCCOc1ccc2c(n1)CCN(c1cccnn1)C2` [Example 22, 2-{3-[(2R)-2-methylpyrrolidin-1-yl]propoxy}-6-pyridazin-3-yl-5,6,7,8-tetrahydro-1,6-naphthyridine]: the figures for the Ki (on hERG product; in series [1]) were 51.8 µM and 0.00916 µM, respectively.

On to `C[C@@H]1CCCN1CCCOc1ccc2c(n1)CCN(c1cnccn1)C2` [Example 23, 2-{3-[(2R)-2-methylpyrrolidin-1-yl]propoxy}-6-pyrazin-2-yl-5,6,7,8-tetrahydro-1,6-naphthyridine], for which the Ki at hERG product came to 11.5 µM; in series [1] it was 0.0103 µM.

For the molecule `C[C@H]1CCCN1CCCOc1ccc2c(n1)CCN(c1cnccn1)C2` [Example 26, 2-{3-[(2S)-2-methylpyrrolidin-1-yl]propoxy}-6-pyrazin-2-yl-5,6,7,8-tetrahydro-1,6-naphthyridine], the Ki at hERG product was 9.88 µM; in series [1], 0.00524 µM.

In the case of `Cc1ccc(N2CCc3nc(OCCCN4CCC[C@H]4C)ccc3C2)cn1` [Example 24, 6-(6-methylpyridin-3-yl)-2-{3-[(2R)-2-methylpyrrolidin-1-yl]propoxy}-5,6,7,8-tetrahydro-1,6-naphthyridine], the Ki on hERG product was 35.6 µM; in series [1], 0.00821 µM.
